Assay results published in patent publication US4179508A, “Sulfur-containing derivatives of 4,4-dimethyl-2H,4H-isoquinoline-1,3-dione, and anticonvulsant and antihyperlipidemic compositions thereof” (Boehringer Ingelheim GmbH, priority 1977, dated 1979).
Where two headings read alike, the source gives them in different places.

Legend:
Format in all cases: in vivo
[1] = tested on: hind limb tonic extensor component of the maximal seizure pattern; test: Anticonvulsive activity in mice, maximal electroshock seizure pattern method; details: Mus musculus, male mice, oral, maximal electroshock 50 mA, 0.2 sec.
Description: (§1) The anticonvulsive activity and toxicity of the compounds of this invention were ascertained by the methods described below, and tables I and II show the results of these tests for a few representative species of the genus, where
Male mice with body weights of between 20 and 26 gm were used as the test animals. They were allowed free access to food and water up to one hour before administration of the test compound. The tests were carried out by using the maximal electroshock seizure pattern method [SWINYARD et, J. Pharmacol. exp. Ther. 106, 319 (1952)].
The electroshock apparatus was constructed according to WOODBURY and DAVENPORT [Arch. int. Pharmacodyn. 99, 97 (1952)]. The electric impulses (50 Hz A.C., 50 mA, 0.2 sec.) were delivered via steel ball electrodes covered with buckskin and moistened with an aqueous 0.9% sodium chloride solution to the heads by way of the eyes of the mice. The test is a measure of the ability of an anticonvulsant drug to abolish the hind limb tonic extensor component of the maximal seizure pattern induced by electric stimulation. The test compound was suspended in 1% of tylose and administered orally in a volume of 0.1 ml per 10 gm of mouse, and each dosage was administered to a group of 10 animals. Control groups received the suspension agent orally. 30, 150 and 300 minutes after administration all animals were shocked. ED50 values were determined by the graphic statistical method of LITCHFIELD and WILCOXON [J. Pharmacol. exp. Therap. 96, 99 (1949)] as a measure of the ability of the test compounds to abolish the hindlimb tonic extensor compound of the maximal seizure pattern in 50 percent of the animals.

Acute toxicity = details: mouse, in vivo, po; mice, p.o., groups of 10, observation time 4 days
Description: as §1
(§2) The acute toxicity of the compounds was determined after administration of various dosages to groups of 10 mice with body weights of between 20 and 26 gm (observation time: 4 days).

mice = test: Acute toxicity; details: 500 mgm/kg p.o., observation time 4 days
Description: as §1, §2

[2] = 0.5 h, shocked 30 minutes after administration, read-out: ED50, 30 minutes
[3] = 2.5 h, shocked 150 minutes after administration, read-out: ED50, 150 minutes
[4] = 5 h, shocked 300 minutes after administration, read-out: ED50, 300 minutes

SMILES	ED50 [1, 2] [mg/kg]	ED50 [1, 3] [mg/kg]	ED50 [1, 4] [mg/kg]	LD50 at 96 h (Acute toxicity) [mg/kg]	animals died (mice)
C[S+]([O-])CCN1C(=O)c2ccccc2C(C)(C)C1=O (stereo not drawn) [B, 4,4-Dimethyl-2-(2-methylsulfinyl-ethyl)-2H,4H-isoqionoline-1,3-dione]	14.5	16.8	25	~500	4 of 10
CC1(C)C(=O)N(CCS(C)(=O)=O)C(=O)c2ccccc21 [C, 4,4-Dimethyl-2-(2-methylsulfonyl-ethyl)-2H,4H-isoquinoline-1,3-dione]	26.3	35.2	32.5	> 500	1 of 10
CSCCN1C(=O)c2ccccc2C(C)(C)C1=O [Compound A, 4,4-Dimethyl-2-(2-methylmercapto-ethyl)-2H,4H-isoquinoline-1,3-dione]	17.3	22.8	27.8	> 500	0 of 10
CSCN1C(=O)c2ccccc2C(C)(C)C1=O [D, 4,4-Dimethyl-2-(methylmercapto-methyl)-2H,4H-isoquinoline-1,3-dione]	28	16.2	19.8		
C[S+]([O-])CN1C(=O)c2ccccc2C(C)(C)C1=O (stereo not drawn) [E, 4,4-Dimethyl-2-(methylsulfinyl-methyl)-2H,4H-isoquinoline-1,3-dione]	8.3	10.5	11.5		
